Experimental data: patent US6548041B1, “Dopamine transporter imaging agents” (Organix, Inc., priority 1999, dated 2003)

What was measured:
[1] = molecular target: T1, DAT sites (Macaca mulatta, UniProt Q7JHP9); experiment: Selectivity for DAT sites in the monkey brain (displacement by unlabeled CFT); type: in vivo
T1 construct: from tissue; host or cells: brain (striatum) of living rhesus monkeys, imaged in vivo
Method: For this study, a monkey was positioned supine on the imaging table of the MultiSPECT 2 gamma camera and injected with ˜20 mCi of ^99mTc O-1560T as described above. At approximately 20 min. after radiopharmaceutical administration, the animal was injected with CFT (1.0 mg/kg) and imaging was continued for an additional 70 min.
(§1) SPECT slices with greatest striatal activity or in which the occipital cortex was well visualized were summed and regions of interest (ROI's) were constructed. In the striatal planes, ROI's were placed on the right and left striatum (caudate+putamen). Radioactivity in the right and left striatum were averaged. ROI radioactivities (cpm/cc) were decay corrected to the time of injection. The difference between striatal and occipital cortex activity (specific binding) was calculated for each image and was plotted as a function of time. Corrections for scattered fraction and partial volume effects were not performed.

[2] = tested on: DAT sites in striatum; experiment: SPECT imaging of monkey brain with 99mTc labeled tracers; type: in vivo, Rhesus monkeys; settings: SPECT images
Method: (§2) All SPECT images were acquired with a MultiSPECT 2 gamma camera (Siemens, Hoffman Estates, Ill.) equipped with fan-beam collimators and peaked to the 140 KeV photopeak of ^99mTc (15% window). This camera has intrinsic resolution of 4.6 mm (FWHM), and a sensitivity of ˜240 cps/mCi. Images were acquired over 360° (60 projections/head, 128×128 matrix) in the continuous mode. Image reconstruction was performed using a conventional filtered back-projection algorithm to an in-plane resolution of 10 mm FWHM and attenuation correction via the Chang method.
(§3) Rhesus monkeys weighing approximately 7 kg were anesthetized with ketamine/xylazine (15.0 and 1.5 mg/kg) and positioned prone on the imaging bed of the SPECT camera. Before the start of imaging, a venous catheter was inserted in a peripheral vein for radiopharmaceutical administration. The heads of the animals were immobilized with a custom fabricated head holder. Approximately 20-25 mCi of ^99mTc labeled O-1505T, O-1508T, O-1561T or O-1560T was injected intravenously over 60 seconds. Dynamic SPECT imaging was initiated at the end of the infusion and consisted of 2 min. acquisitions during the first hour and 5 min. acquisitions thereafter.
as §1

[3] = molecular target: T2, DAT sites in striatum (Macaca mulatta, UniProt Q7JHP9); experiment: as above; type: in vivo, Rhesus monkeys
T2 construct: from tissue; host or cells: brain (striatum) of living rhesus monkeys, imaged in vivo
T2 sequence (Q7JHP9 1-620): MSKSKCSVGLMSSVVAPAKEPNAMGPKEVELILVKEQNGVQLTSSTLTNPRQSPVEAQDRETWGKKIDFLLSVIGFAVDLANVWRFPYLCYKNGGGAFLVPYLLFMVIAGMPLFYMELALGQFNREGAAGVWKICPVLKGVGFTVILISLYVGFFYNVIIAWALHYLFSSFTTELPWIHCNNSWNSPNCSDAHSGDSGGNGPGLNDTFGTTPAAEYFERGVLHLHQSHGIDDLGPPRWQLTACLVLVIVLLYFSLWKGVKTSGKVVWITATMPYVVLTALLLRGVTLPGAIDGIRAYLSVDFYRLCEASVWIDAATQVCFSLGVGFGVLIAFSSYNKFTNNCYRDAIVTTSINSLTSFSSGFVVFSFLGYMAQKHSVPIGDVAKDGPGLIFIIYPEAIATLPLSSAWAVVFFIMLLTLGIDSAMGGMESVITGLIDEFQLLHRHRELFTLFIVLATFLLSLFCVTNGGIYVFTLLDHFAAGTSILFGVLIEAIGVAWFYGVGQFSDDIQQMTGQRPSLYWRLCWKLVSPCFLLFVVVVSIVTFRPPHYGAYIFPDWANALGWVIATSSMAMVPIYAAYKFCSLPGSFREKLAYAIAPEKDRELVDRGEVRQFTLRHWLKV
Method: as §2, §3, §1

[4] = Biodistribution and radiation dosimetry (MIRdose); type: in vivo, Sprague-Dawley rats
Method: Groups of male Sprague-Dawley rats were in injected with ˜10 mCi of ^99mTc labeled O-1505T and O-1561T. At time intervals between 5 min. and 24 hrs after injection, groups of 6 animals injected with each radiopharmaceutical were sacrificed and biodistribution was measured. Samples of blood, heart, lung, liver, spleen, kidney, adrenal, stomach, GI tract, testes, bone, bone marrow and skeletal muscle were weighed and radioactivity was measured with a well type gamma counter (LKB model #1282, Wallac Oy, Finland). To correct for radioactive decay and permit calculation of the concentration of radioactivity in each organ as a fraction of the administered dose, aliquots of the injected doses were counted simultaneously. The results were expressed as percent injected dose per gram (%I.D./g) and radiation dosimetry was estimated by the MIRdose method.

[5] = molecular target: T2, DAT sites in striatum; experiment: SPECT of MPTP treated monkeys (animal model of Parkinson's disease); type: in vivo, rhesus monkey; settings: one month after MPTP treatment
From the text: The neurotoxin MPTP ([…]), when administered to monkeys, produces a spectrum of motor, cognitive, biochemical and morphological changes that is not replicated in rodents. MPTP-treated monkeys develop neurological deficits (resting tremor, rigidity, akinesia, postural abnormalities), morphological changes (cell loss in the substantia nigra, ventral tegmental area, retrorubal fields) and biochemical changes (severe depletion of DA and decreases in norepinephrine and serotonin) that closely, parallel idiopathic PD and post-encephalitic Parkinsonism.
Two monkeys were treated with MPTP; 3-5 doses of 0.6 mg/kg administered over 10 days. Treatment was performed under ketamine anesthesia (15 mg/kg). This dose of MPTP, has previously been used to produce Parkinsonism within 2-3 weeks and depletion of ^3H or ^11C. CFT binding sites by one month. Animals treated in this manner were expected to show an inverse relationship between SPECT tracer binding and motor dysfunction. […]
SPECT slices with greatest striatal activity or in which the occipital cortex was well visualized were summed and regions of interest (ROI's) were constructed. […] Radioactivity in the right and left striatum were averaged. […] The difference between striatal and occipital cortex activity (specific binding) was calculated for each image and was plotted as a function of time. […]

T1 sequence (Q7JHP9 1-620): as above

CCC(=O)C1C(c2ccc(F)cc2)CC2CCC1N2CCCN1CC[S][99Tc]2(=[O])[S]CC[N]2C(=O)C1 (stereo not drawn) [Compound O-1505T, N-[(2-((3′-N′-Propyl-(1″R)-2″β-1-propanoyl-3″α-(4-fluorophenyl)-tropane)-(2-mercaptoethyl)amino)acetyl)-2-aminoethanethiolato]technetium (V) Oxide]
striatal accumulation after a receptor saturating dose of unlabeled CFT ([1]; CFT 1.0 mg/kg at about 20 min, by 60 minutes after injection): no evidence of focal accumulation in the striatum
accumulation in the striatum (SPECT images) ([1]; before injection of CFT): significant accumulation
time after injection to excellent contrast between striatum and the rest of the brain ([1]; before the effect of CFT): ≤ 30 min
accumulation in thalamus, hypothalamus or midbrain (regions rich in 5-HT transporters) [2]: lack of accumulation
time after injection to excellent contrast between striatum and the rest of the brain ([3]; i.v., normal monkeys): ≤ 30 min
accumulation of radioactivity in striatum vs other areas of the brain (SPECT images) ([3]; images acquired between 30 and 50 minutes after injection): high concentrations of radiopharmaceutical in the striatum with minimal accumulation in other areas of the brain
striatal to occipital cortex ratio ([3]; region of interest analysis, SPECT images 30-50 minutes after i.v. injection of 20-25 mCi): ~2.5
radiation dose to target organ (urinary bladder) ([4]; MIRdose calculations from rat biodistribution): 0.29 rem/mCi
total body effective dose ([4]; MIRdose estimate from rat biodistribution): 0.037 rem/mCi
clearance from tissues (biodistribution) ([4]; rat, 5 min to 24 hrs after injection): cleared rapidly from all tissues of the rat
striatal accumulation after MPTP treatment compared with normal animals [5]: the level of accumulation decreased markedly and the striatum could not be differentiated from surrounding structures
